Experiments:
[1] = xn = mol fraction of the nth substance listed; conditions: 101 kPa, Liquid; for viscosity: Capillary tube (Ostwald / Ubbelohde) method
[2] = refractive index (Na D-line) (dimensionless); xn = mol fraction of the nth substance listed; conditions: 101 kPa, Liquid, Standard Abbe refractometry
[3] = 101 kPa, Liquid; for viscosity: Capillary tube (Ostwald / Ubbelohde) method
[4] = refractive index (Na D-line) (dimensionless); conditions: 101.33 kPa, Liquid, Standard Abbe refractometry

CCCCc1ccccc1 [butylbenzene] + COc1ccccc1
Conditions | mass density, [1] [kg/m3] | refractive index, [2] | viscosity, [1] [mPa·s]
293.15 K, x2 = 0 | 861.26 | 1.4895 | 1.034
293.15 K, x2 = 0.1238 | 873.01 | 1.4923 | 1.005
293.15 K, x2 = 0.225 | 884.01 | 1.4948 | 0.985
293.15 K, x2 = 0.3541 | 898.83 | 1.498 | 0.971
293.15 K, x2 = 0.48 | 914.4 | 1.5014 | 0.965
293.15 K, x2 = 0.581 | 927.77 | 1.5042 | 0.97
293.15 K, x2 = 0.67 | 940.23 | 1.5068 | 0.983
293.15 K, x2 = 0.7672 | 954.65 | 1.5097 | 1.002
293.15 K, x2 = 0.8483 | 967.5 | 1.5123 | 1.027
293.15 K, x2 = 0.9201 | 979.53 | 1.5148 | 1.052
303.15 K, x2 = 0 | 852.23 | 1.4845 | 0.893
303.15 K, x2 = 0.1238 | 865.04 | 1.4872 | 0.872
303.15 K, x2 = 0.225 | 875.92 | 1.4896 | 0.855
303.15 K, x2 = 0.3541 | 890.71 | 1.4927 | 0.841
303.15 K, x2 = 0.48 | 906.13 | 1.4961 | 0.837
303.15 K, x2 = 0.581 | 919.36 | 1.4989 | 0.842
303.15 K, x2 = 0.67 | 931.73 | 1.5014 | 0.851
303.15 K, x2 = 0.7672 | 946.15 | 1.5043 | 0.867
303.15 K, x2 = 0.8483 | 958.84 | 1.5068 | 0.885
303.15 K, x2 = 0.9201 | 970.6 | 1.5093 | 0.905

c1ccccc1 [benzene] + COc1ccccc1
x2 = 0
Conditions | mass density, [1] [kg/m3] | refractive index, [2] | viscosity, [1] [mPa·s]
293.15 K | 877.43 | 1.5011 | 0.647
303.15 K | 868.26 | 1.4947 | 0.563

COc1ccccc1 [anisole] + CCCc1ccccc1
x1 = 1
Conditions | mass density, [1] [kg/m3] | refractive index, [2] | viscosity, [1] [mPa·s]
293.15 K | 993.8 | 1.5177 | 1.084
303.15 K | 984.37 | 1.5124 | 0.931

CCCCc1ccccc1 [butylbenzene]
Conditions | mass density, [3] [kg/m3] | refractive index, [4] | viscosity, [3] [mPa·s]
293.15 K | 861.26 | 1.4895 | 1.034
303.15 K | 852.23 | 1.4845 | 0.893

COc1ccccc1 [anisole] + CCCCc1ccccc1
x1 = 1
Conditions | mass density, [1] [kg/m3] | refractive index, [2] | viscosity, [1] [mPa·s]
293.15 K | 993.8 | 1.5177 | 1.084
303.15 K | 984.37 | 1.5124 | 0.931

CCc1ccccc1 [ethylbenzene]
Conditions | mass density, [3] [kg/m3] | refractive index, [4] | viscosity, [3] [mPa·s]
293.15 K | 866.95 | 1.4957 | 0.669
303.15 K | 858.01 | 1.4902 | 0.596

c1ccccc1 [benzene]
Conditions | mass density, [3] [kg/m3] | refractive index, [4] | viscosity, [3] [mPa·s]
293.15 K | 877.43 | 1.5011 | 0.647
303.15 K | 868.26 | 1.4947 | 0.563

COc1ccccc1 [anisole]
Conditions | mass density, [3] [kg/m3] | refractive index, [4] | viscosity, [3] [mPa·s]
293.15 K | 993.8 | 1.5177 | 1.084
303.15 K | 984.37 | 1.5124 | 0.931

CCCc1ccccc1 [propylbenzene]
Conditions | mass density, [3] [kg/m3] | refractive index, [4] | viscosity, [3] [mPa·s]
293.15 K | 863.13 | 1.4916 | 0.855
303.15 K | 854.71 | 1.4858 | 0.744

COc1ccccc1 [anisole] + c1ccccc1
Conditions | mass density, [1] [kg/m3] | refractive index, [2] | viscosity, [1] [mPa·s]
293.15 K, x1 = 0.0938 | 889.8 | 1.5032 | 0.677
293.15 K, x1 = 0.1955 | 903.56 | 1.5053 | 0.711
293.15 K, x1 = 0.3053 | 917.74 | 1.5074 | 0.751
293.15 K, x1 = 0.3994 | 929.35 | 1.5091 | 0.788
293.15 K, x1 = 0.5 | 941.27 | 1.5108 | 0.829
293.15 K, x1 = 0.6005 | 952.68 | 1.5124 | 0.874
293.15 K, x1 = 0.6996 | 963.47 | 1.5139 | 0.921
293.15 K, x1 = 0.8013 | 974.11 | 1.5153 | 0.972
293.15 K, x1 = 0.8978 | 983.8 | 1.5166 | 1.025
293.15 K, x1 = 1 | 993.8 | 1.5177 | 1.084
303.15 K, x1 = 0.0938 | 881.47 | 1.4967 | 0.587
303.15 K, x1 = 0.1955 | 895.16 | 1.4989 | 0.616
303.15 K, x1 = 0.3053 | 909.24 | 1.5011 | 0.649
303.15 K, x1 = 0.3994 | 920.76 | 1.5028 | 0.679
303.15 K, x1 = 0.5 | 932.57 | 1.5046 | 0.714
303.15 K, x1 = 0.6005 | 943.88 | 1.5064 | 0.751
303.15 K, x1 = 0.6996 | 954.56 | 1.508 | 0.791
303.15 K, x1 = 0.8013 | 965.08 | 1.5096 | 0.836
303.15 K, x1 = 0.8978 | 974.66 | 1.511 | 0.88
303.15 K, x1 = 1 | 984.37 | 1.5124 | 0.931

Cc1ccccc1 [toluene]
Conditions | mass density, [3] [kg/m3] | refractive index, [4] | viscosity, [3] [mPa·s]
293.15 K | 866.88 | 1.4962 | 0.588
303.15 K | 857.46 | 1.4914 | 0.523

Cc1ccccc1 [toluene] + COc1ccccc1
x2 = 0
Conditions | mass density, [1] [kg/m3] | refractive index, [2] | viscosity, [1] [mPa·s]
293.15 K | 866.88 | 1.4962 | 0.588
303.15 K | 857.46 | 1.4914 | 0.523

— the NIST ThermoML archive (doi:10.1021/je0502546)
